Assay results reported in article PMC10247784, “Physiological activation of human and mouse bitter taste receptors by bile acids” (Communications Biology, 2023).

Molecular target: T1, mouse Tas2r108 (Mus musculus, UniProt Q9JKT3)
T1 construct: expressed in transfected cells; host or cells: HEK293T-Gα16gust44
T1 sequence (Q9JKT3 1-297): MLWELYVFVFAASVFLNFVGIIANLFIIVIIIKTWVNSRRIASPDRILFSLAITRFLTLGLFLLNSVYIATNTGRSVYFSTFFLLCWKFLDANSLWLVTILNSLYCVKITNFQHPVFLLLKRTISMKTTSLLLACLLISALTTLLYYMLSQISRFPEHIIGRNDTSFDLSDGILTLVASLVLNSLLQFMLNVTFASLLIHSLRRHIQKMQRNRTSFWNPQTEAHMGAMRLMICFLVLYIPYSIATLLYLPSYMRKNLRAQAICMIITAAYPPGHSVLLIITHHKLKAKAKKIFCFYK
Test: Calcium imaging assay (FLIPR), HEK293T-Gα16gust44 cells transfected with mouse Tas2r108
Assay type: cell-based
Description: This set of bile acids was chosen because of their commercial availability in high purities, their diversity within the class of bile acids and their previous detection and quantitation in human blood. Stock solutions were prepared in DMSO.
As basal growth medium for the HEK293T-Gα16gust44 cell line[17],[59] served Dulbecco’s modified eagle medium (DMEM) (Thermo Fisher Scientific, Darmstadt, Germany) supplemented with 10 % fetal bovine serum (Sigma-Aldrich, Steinheim, Germany), 2 mM L-glutamine (Sigma-Aldrich, Steinheim, Germany), 100 units/ml penicillin (Sigma Aldrich, Steinheim, Germany) and 100 µg/ml streptomycin (Sigma Aldrich, Steinheim, Germany). Growth conditions were 37 °C, 5 % CO2 and saturated air-humidity[60].
HEK293T-Gα16gust44 cells were seeded on poly-D-lysine (10 µg/ml) coated 96-well plates to reach a confluence of 40-60 % the next day. For transient transfection 150 ng of plasmid DNA containing the receptor of interest and 0.3 µl lipofectamine 2000 (Thermo Fisher Scientific, Darmstadt, Germany) per well were used and transfection took place according to the manual of lipofectamine 2000. […] The empty vector DNA (mock) was transfected as negative control[14],[41].
Cells were loaded using the calcium-sensitive fluorescent dye Fluo-4-AM (Abcam, Cambridge, Great Britain) in the presence of 2.5 mM probenecid (Sigma-Aldrich, Steinheim, Germany) the day after transfection[13],[41]. 1 h after loading, cells were washed with C1 buffer using a BioTek Cell Washer, incubated in the dark for half an hour and washed again. For automated agonist application and measurement of fluorescence changes, a FLIPR^TETRA device (Molecular Devices, San José, United States) was used. Viability of cells was tested by application of 100 nM Somatostatin 14 (Bachem, Bubendorf, Switzerland)[42].
Measured data were negative control corrected by subtracting the signal of the mock-transfected cells and exported to Microsoft Excel using the FLIPR software ScreenWorks 4.2. In Microsoft Excel software, standardization of maximum fluorescence intensities to the basal fluorescence and normalization to the buffer-only control was done to calculate the relative fluorescence changes (ΔF/F).
Initial screening experiments performed in duplicate wells were confirmed by at least one replication and representative traces were selected for display. All dose-response relationships were determined by three independent experiments (biological replicates) performed in duplicates (technical replicates). Threshold concentrations, defined as lowest substance concentrations leading to statistically significant elevated fluorescence changes in receptor-transfected cells compared with empty vector-transfected cells, were determined using SigmaPlot with Student’s t-test to evaluate statistical significance (p < 0.01).

C[C@H](CCC(=O)NCCS(=O)(=O)O)[C@H]1CC[C@H]2[C@@H]3CC[C@@H]4C[C@H](O)CC[C@]4(C)[C@H]3CC[C@]12C [Taurolithocholic Acid, taurolithocholic acid]
RLU (Time 0 s): 0 RLU
RLU (Time 2 s): 0.6757 RLU
RLU (Time 4 s): -5.736 RLU
RLU (Time 6 s): 6.046 RLU
RLU (Time 8 s): 39.2838 RLU
RLU (Time 12 s): 8.803 RLU
RLU (Time 14 s): 5.215 RLU
RLU (Time 16 s): -9.6707 RLU
RLU (Time 18 s): -10.699 RLU
RLU (Time 18.781 s): 51.1832 RLU
RLU (Time 20.781 s): 31.0896 RLU
RLU (Time 22.781 s): 17.366 RLU
RLU (Time 24.781 s): 13.0906 RLU
RLU (Time 26.781 s): 51.6272 RLU
RLU (Time 28.781 s): 63.3328 RLU
RLU (Time 30.781 s): 109.429 RLU
RLU (Time 32.781 s): 151.07 RLU
RLU (Time 34.781 s): 184.905 RLU
RLU (Time 36.781 s): 210.816 RLU
RLU (Time 38.781 s): 242.967 RLU
RLU (Time 40.781 s): 265.916 RLU
RLU (Time 42.781 s): 261.677 RLU
RLU (Time 44.781 s): 303.058 RLU
RLU (Time 46.781 s): 324.099 RLU
RLU (Time 48.781 s): 311.969 RLU
RLU (Time 50.781 s): 342.074 RLU
RLU (Time 52.781 s): 343.185 RLU
RLU (Time 54.781 s): 378.711 RLU
RLU (Time 56.781 s): 389.7 RLU
RLU (Time 58.781 s): 401.227 RLU
RLU (Time 60.781 s): 410.325 RLU
RLU (Time 62.781 s): 416.305 RLU
RLU (Time 64.781 s): 417.574 RLU
RLU (Time 66.781 s): 434.462 RLU
RLU (Time 68.781 s): 456.387 RLU
RLU (Time 70.781 s): 443.293 RLU
RLU (Time 72.781 s): 455.898 RLU
RLU (Time 74.781 s): 461.633 RLU
RLU (Time 76.781 s): 455.071 RLU
RLU (Time 78.781 s): 466.188 RLU
RLU (Time 80.781 s): 477.183 RLU
RLU (Time 82.781 s): 506.736 RLU
RLU (Time 84.781 s): 503.228 RLU
RLU (Time 86.781 s): 489.189 RLU
RLU (Time 88.781 s): 473.872 RLU
RLU (Time 90.781 s): 497.168 RLU
RLU (Time 92.781 s): 472.229 RLU
RLU (Time 94.781 s): 481.838 RLU
RLU (Time 96.781 s): 467.082 RLU
RLU (Time 98.781 s): 510.678 RLU
RLU (Time 100.781 s): 498.898 RLU
RLU (Time 102.781 s): 493.381 RLU
RLU (Time 104.781 s): 508.478 RLU
RLU (Time 106.781 s): 488.526 RLU
RLU (Time 108.781 s): 487.641 RLU
RLU (Time 110.781 s): 528.304 RLU
RLU (Time 112.781 s): 500.584 RLU
RLU (Time 114.781 s): 484.964 RLU
RLU (Time 116.781 s): 486.198 RLU
RLU (Time 118.781 s): 494.318 RLU
RLU (Time 120.781 s): 504.713 RLU
RLU (Time 122.781 s): 501.616 RLU
RLU (Time 124.781 s): 482.612 RLU
RLU (Time 126.781 s): 503.591 RLU
RLU (Time 128.781 s): 486.957 RLU
RLU (Time 130.781 s): 500.459 RLU
RLU (Time 132.781 s): 472.597 RLU
RLU (Time 134.781 s): 498.526 RLU
RLU (Time 136.781 s): 501.497 RLU
RLU (Time 137.547 s): 471.412 RLU
RLU (Time 143.547 s): 482.177 RLU
RLU (Time 149.547 s): 466.386 RLU
RLU (Time 155.547 s): 451.788 RLU
RLU (Time 161.547 s): 449.152 RLU
RLU (Time 167.547 s): 425.382 RLU
RLU (Time 173.547 s): 442.283 RLU
RLU (Time 179.547 s): 425.607 RLU
RLU (Time 185.547 s): 410.079 RLU
RLU (Time 191.547 s): 397.165 RLU
RLU (Time 197.547 s): 392.705 RLU
RLU (Time 203.547 s): 382.875 RLU
RLU (Time 209.547 s): 387.748 RLU
RLU (Time 215.547 s): 381.118 RLU
RLU (Time 221.547 s): 374.673 RLU
RLU (Time 227.547 s): 340.738 RLU
RLU (Time 233.547 s): 357.908 RLU
RLU (Time 239.547 s): 329.058 RLU
RLU (Time 245.547 s): 312.353 RLU
RLU (Time 293.547 s): 280.532 RLU
RLU (Time 299.547 s): 302.8 RLU
Activation threshold concentration Tas2r108 (p < 0.01 vs empty vector): 1 µM
RLU (time 305.547 s): 271.906 RLU
RLU (time 311.547 s): 293.129 RLU
RLU (time 317.547 s): 296.196 RLU
RLU (time 323.547 s): 325.759 RLU
RLU (time 329.547 s): 278.402 RLU
RLU (time 335.547 s): 309.885 RLU
RLU (time 341.547 s): 315.03 RLU
RLU (time 347.547 s): 300.184 RLU
RLU (time 353.547 s): 294.817 RLU
RLU (time 359.547 s): 274.663 RLU
